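How tested: cells in 96-well plates exposed to compound for 48 hours at five concentrations. GI50 is the concentration that inhibits growth by half.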 The source made the active and inactive calls. Cut-off read from the data, not from the text of the source: active = GI50 up to about 1.1 µM and inactive = higher.
How the values were obtained:
Experiment in all cases: NCI tumour cell line growth inhibition, 48 h
COLO 205 = system: COLO 205
HCT-15 = system: HCT-15
HL-60 = system: HL-60
HT-29 = system: HT-29
K562 = system: K562
LOX IMVI = system: LOX IMVI
M14 = system: M14
SK-MEL-2 = system: SK-MEL-2
SNB-75 = system: SNB-75
SR = system: SR
U-251 = system: U-251
CAKI-1 = system: CAKI-1
HOP-92 = system: HOP-92
KM12 = system: KM12
MDA-MB-435 = system: MDA-MB-435
OVCAR-5 = system: OVCAR-5
PC-3 = system: PC-3
SK-OV-3 = system: SK-OV-3
MDA-MB-231 = system: MDA-MB-231
T47D = system: T47D

Structure (SMILES) | GI50 (COLO 205) | GI50 (HCT-15) [µM] | GI50 (HL-60) | GI50 (HT-29) | GI50 (K562) | GI50 (LOX IMVI) | GI50 (M14) | GI50 (SK-MEL-2) | GI50 (SNB-75) | GI50 (SR) | GI50 (U-251) | GI50 (CAKI-1) | GI50 (HOP-92) | GI50 (KM12) | GI50 (MDA-MB-435) | GI50 (OVCAR-5) | GI50 (PC-3) | GI50 (SK-OV-3) | GI50 (MDA-MB-231) | GI50 (T47D)
Oc1cc(-c2ccc(Oc3ccccc3)cc2)nc2cc3c(cc12)OCO3 | > 100 µM (inactive) | > 100 | > 100 µM (inactive) | > 100 µM (inactive) | > 100 µM (inactive) | > 100 µM (inactive) | > 100 µM (inactive) | > 100 µM (inactive) | 27.2 µM (inactive) | > 100 µM (inactive) | > 100 µM (inactive) | – | – | – | – | – | – | – | – | –
CCn1nc(C)c2c1C(=O)NCC(=O)N2 | > 100 µM (inactive) | > 100 | – | > 100 µM (inactive) | – | – | > 100 µM (inactive) | – | > 100 µM (inactive) | – | > 100 µM (inactive) | > 100 µM (inactive) | > 100 µM (inactive) | > 100 µM (inactive) | > 100 µM (inactive) | > 100 µM (inactive) | > 100 µM (inactive) | > 100 µM (inactive) | – | –
Clc1ccc(CCn2cncn2)cc1 | > 100 µM (inactive) | > 100 | > 100 µM (inactive) | > 100 µM (inactive) | > 100 µM (inactive) | > 100 µM (inactive) | > 100 µM (inactive) | > 100 µM (inactive) | 86.3 µM (inactive) | > 100 µM (inactive) | > 100 µM (inactive) | > 100 µM (inactive) | > 100 µM (inactive) | > 100 µM (inactive) | – | > 100 µM (inactive) | – | > 100 µM (inactive) | – | –
NS(=O)(=O)c1ccc(NC(=O)C2C(=O)C(=O)N(c3ccc(S(N)(=O)=O)cc3)C2=O)cc1 (configuration not stated) | > 100 µM (inactive) | > 100 | > 10 µM (inactive) | > 100 µM (inactive) | > 100 µM (inactive) | > 100 µM (inactive) | > 100 µM (inactive) | > 100 µM (inactive) | > 100 µM (inactive) | > 100 µM (inactive) | > 100 µM (inactive) | > 100 µM (inactive) | > 100 µM (inactive) | – | – | > 100 µM (inactive) | – | > 100 µM (inactive) | – | –
COc1cc(C2C(Cl)C(=O)N2NC(=O)c2ccc(NC(C)=O)cc2)cc(Br)c1O (configuration not stated) | > 100 µM (inactive) | – | > 100 µM (inactive) | > 100 µM (inactive) | > 100 µM (inactive) | – | – | > 100 µM (inactive) | > 100 µM (inactive) | > 100 µM (inactive) | > 100 µM (inactive) | – | > 100 µM (inactive) | > 100 µM (inactive) | – | > 100 µM (inactive) | – | > 100 µM (inactive) | – | –
C=CCN1C(=O)/C(=C/c2ccco2)N=C1SC1OC(COC(C)=O)C(OC(C)=O)C(OC(C)=O)C1OC(C)=O (configuration not stated) | > 100 µM (inactive) | 88.1 | 13.2 µM (inactive) | – | 39.8 µM (inactive) | > 100 µM (inactive) | – | > 100 µM (inactive) | > 100 µM (inactive) | 38.9 µM (inactive) | > 100 µM (inactive) | > 100 µM (inactive) | 72.9 µM (inactive) | > 100 µM (inactive) | > 100 µM (inactive) | > 100 µM (inactive) | > 100 µM (inactive) | > 100 µM (inactive) | > 100 µM (inactive) | –
CC(=O)Nc1ccc(/C=C(\NC(=O)c2ccccc2)C(=O)NNS(=O)(=O)c2ccc(C)cc2)cc1 | 25.8 µM (inactive) | 18.4 | > 100 µM (inactive) | > 100 µM (inactive) | > 100 µM (inactive) | 16.4 µM (inactive) | > 100 µM (inactive) | > 100 µM (inactive) | > 100 µM (inactive) | 20.1 µM (inactive) | > 100 µM (inactive) | > 100 µM (inactive) | > 100 µM (inactive) | > 100 µM (inactive) | – | > 100 µM (inactive) | – | > 100 µM (inactive) | – | –
CCOC(=O)/C(=C/c1ccco1)P(=O)(OCC)OCC | > 100 µM (inactive) | > 100 | > 100 µM (inactive) | > 100 µM (inactive) | > 100 µM (inactive) | > 100 µM (inactive) | > 100 µM (inactive) | > 100 µM (inactive) | > 100 µM (inactive) | > 100 µM (inactive) | > 100 µM (inactive) | > 100 µM (inactive) | > 100 µM (inactive) | > 100 µM (inactive) | – | > 100 µM (inactive) | – | > 100 µM (inactive) | – | –
O=C(c1ccco1)c1ccccc1C(=O)c1ccco1 | > 100 µM (inactive) | > 100 | > 100 µM (inactive) | > 100 µM (inactive) | > 100 µM (inactive) | > 100 µM (inactive) | > 100 µM (inactive) | > 100 µM (inactive) | > 100 µM (inactive) | > 100 µM (inactive) | > 100 µM (inactive) | > 100 µM (inactive) | > 100 µM (inactive) | > 100 µM (inactive) | – | > 100 µM (inactive) | – | – | – | –
CC(C)Oc1c(O)c2c3c(oc(=O)n3C=CC2c2ccccc2F)c1OC(C)C (configuration not stated) | 18.7 µM (inactive) | 33 | 20.1 µM (inactive) | 21.7 µM (inactive) | 30.5 µM (inactive) | 17.5 µM (inactive) | 24.8 µM (inactive) | 15.5 µM (inactive) | 20.7 µM (inactive) | 16.7 µM (inactive) | 35.9 µM (inactive) | 38.5 µM (inactive) | 28.1 µM (inactive) | 29.1 µM (inactive) | 26.3 µM (inactive) | 20 µM (inactive) | 13.5 µM (inactive) | > 100 µM (inactive) | 27.7 µM (inactive) | –
O=C1c2ccccc2C2(O)NC(=S)N(c3ccccc3)C12O (configuration not stated) | > 100 µM (inactive) | > 100 | > 100 µM (inactive) | > 100 µM (inactive) | > 100 µM (inactive) | > 100 µM (inactive) | > 100 µM (inactive) | > 100 µM (inactive) | > 100 µM (inactive) | > 100 µM (inactive) | > 100 µM (inactive) | > 100 µM (inactive) | > 100 µM (inactive) | > 100 µM (inactive) | – | > 100 µM (inactive) | – | > 100 µM (inactive) | – | –
N=C1NC(c2ccc(Cl)cc2)=CC(c2cccc(Cl)c2)S1 (configuration not stated) | 16.4 µM (inactive) | 13.1 | 38 µM (inactive) | 30.8 µM (inactive) | 34.3 µM (inactive) | 33.7 µM (inactive) | 48.4 µM (inactive) | 20.6 µM (inactive) | – | 28.7 µM (inactive) | 22.4 µM (inactive) | 24.1 µM (inactive) | 16.9 µM (inactive) | 27 µM (inactive) | 18.2 µM (inactive) | 66.8 µM (inactive) | 28.2 µM (inactive) | 36.3 µM (inactive) | – | 25.4 µM (inactive)
CC(=O)c1ccc(NC(=O)/C(=N\NC(N)=O)C(C#N)CC(C)(C)C=O)cc1 (configuration not stated) | > 100 µM (inactive) | > 100 | > 100 µM (inactive) | > 100 µM (inactive) | > 100 µM (inactive) | > 100 µM (inactive) | > 100 µM (inactive) | > 100 µM (inactive) | > 100 µM (inactive) | > 100 µM (inactive) | > 100 µM (inactive) | > 100 µM (inactive) | > 100 µM (inactive) | > 100 µM (inactive) | – | > 100 µM (inactive) | – | > 100 µM (inactive) | – | –
CSC1=N/C(=C\c2ccc(C)cc2)C(=O)N1CN1CCCCC1 | 73.1 µM (inactive) | 73.8 | – | 38.5 µM (inactive) | 74 µM (inactive) | 34.3 µM (inactive) | > 100 µM (inactive) | > 100 µM (inactive) | 69.5 µM (inactive) | 89.7 µM (inactive) | > 100 µM (inactive) | – | 67.3 µM (inactive) | > 100 µM (inactive) | > 100 µM (inactive) | > 100 µM (inactive) | 72.4 µM (inactive) | > 100 µM (inactive) | > 100 µM (inactive) | –
CC1=C(C#N)c2nc3ccccc3n2C(=O)C1(C)CCO (configuration not stated) | > 100 µM (inactive) | > 100 | > 100 µM (inactive) | > 100 µM (inactive) | > 100 µM (inactive) | > 100 µM (inactive) | > 100 µM (inactive) | > 100 µM (inactive) | > 100 µM (inactive) | 24.3 µM (inactive) | > 100 µM (inactive) | > 100 µM (inactive) | > 100 µM (inactive) | – | > 100 µM (inactive) | > 100 µM (inactive) | > 100 µM (inactive) | > 100 µM (inactive) | > 100 µM (inactive) | –
O=C(Nc1cccc(O)c1)C(=O)C1C(=O)NC(=S)NC1=O | > 100 µM (inactive) | > 100 | > 100 µM (inactive) | > 100 µM (inactive) | > 100 µM (inactive) | > 100 µM (inactive) | > 100 µM (inactive) | – | > 100 µM (inactive) | > 100 µM (inactive) | > 100 µM (inactive) | > 100 µM (inactive) | > 100 µM (inactive) | – | – | – | – | > 100 µM (inactive) | – | –
O=C(/C=C/c1ccccc1O)/C=C/c1ccccc1O | 1.73 µM (inactive) | 1.45 | 2.9 µM (inactive) | 1.92 µM (inactive) | 0.611 µM (active) | 0.252 µM (active) | 1.71 µM (inactive) | 9.25 µM (inactive) | 3.9 µM (inactive) | 0.526 µM (active) | 0.482 µM (active) | 1.52 µM (inactive) | 1.39 µM (inactive) | 1.06 µM (active) | 1.95 µM (inactive) | 1.49 µM (inactive) | 1.74 µM (inactive) | 1.86 µM (inactive) | 2.48 µM (inactive) | –
CCOC(=O)[N-]c1ccc(S(=O)(=O)[O+](C)CCl)cc1.CCOC(=O)[N-]c1ccc(S(=O)(=O)[O+](C)CCl)cc1.NC(=O)N=O.NC(=O)OCCCl | > 100 µM (inactive) | > 100 | > 100 µM (inactive) | > 100 µM (inactive) | > 100 µM (inactive) | > 100 µM (inactive) | > 100 µM (inactive) | > 100 µM (inactive) | – | > 100 µM (inactive) | > 100 µM (inactive) | > 100 µM (inactive) | > 100 µM (inactive) | > 100 µM (inactive) | – | > 100 µM (inactive) | – | > 100 µM (inactive) | – | –

— ChEMBL document CHEMBL1201862, “PubChem BioAssay data set” (2004)
